Patent US20260109707A1, “HETEROBIFUNCTIONAL COMPOUNDS AND METHODS OF TREATING DISEASE” (Halda Therapeutics OpCo. Inc., priority 2022, published 2026)
Read-outs that look alike come from different tables or passages of the source.

Key:
[1] = tested on: T-Rex 293 cell line SC3 cells having increased expression of androgen receptor protein due to exposure to doxycycline; assay: Cellular growth inhibition assay, T-Rex 293 SC3 cells with doxycycline (CellTiter-Glo, 72 hours); format: cell-based; details: T-Rex 293 SC3 cells with increased androgen receptor expression due to doxycycline (10 ng/mL)
Procedure, shortened: (§1)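 Growth inhibition is measured in an inducible AR-expressing T-Rex 293 clone, SC3, cultured with or without 10 ng/mL doxycycline in hormone-depleted medium. Test compounds are applied for 72 hours. GI50 values derive from CellTiter-Glo 2.0 signal fitted by four-parameter regression.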

[2] = tested on: T-Rex 293 cell line SC3 cells lacking increased expression of androgen receptor protein; assay: Cellular growth inhibition assay, T-Rex 293 SC3 cells without doxycycline (CellTiter-Glo, 72 hours); format: cell-based; details: T-Rex 293 cell line SC3 cells not exposed to doxycycline (lacking increased androgen receptor expression)
Procedure, shortened: as §1

VCaP cells = assay: Cellular growth inhibition assay for VCaP cells (CellTiter-Glo, 72 hours); format: cell-based, human
Procedure, shortened: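 Luminescent viability signal after 72 h of compound exposure gave GI50 values by four-parameter nonlinear regression. Compounds were added in 0.5% DMSO to cells plated 24 h earlier at 5000/well in DMEM containing 10% FBS.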

Row | SMILES | GI50 ([1]; 72 h) [µM] | GI50 ([2]; 72 h) [µM] | GI50 (VCaP cells; Homo sapiens, VCaP, 72 h) [µM] | GI50 [1] [µM] | GI50 (VCaP cells) [µM] | GI50 [2] [µM]
1 | Cc1sc2c(c1C)C(c1ccc(OC3CC4(CCN(c5ccc(C(=O)N[C@H]6CC[C@H](Oc7ccc(C#N)c(Cl)c7)CC6)nn5)CC4)C3)nc1)=NC1(CC1)c1nnc(C)n1-2 [I-443] | < 0.5 | > 3 | < 0.5 |  |  | 
2 | Cc1sc2c(c1C)C(c1ccc(CC3CC4(CCCN(c5ccc(C(=O)N[C@H]6CC[C@H](Oc7ccc(C#N)c(Cl)c7)CC6)nn5)C4)C3)cc1)=NCc1nnc(C)n1-2 (stereo partly drawn) [I-488] |  | > 3 |  | < 0.5 | < 0.5 | 
3 | Cc1sc2c(c1C)C(c1ccc(N3CCC4(CCN(c5ccc(C(=O)N[C@H]6CC[C@H](Oc7ccc(C#N)c(Cl)c7)CC6)nn5)C4)C3)c(F)c1)=N[C@@H](C)c1nnc(C)n1-2 (stereo partly drawn) [I-745] |  |  | < 0.5 | < 0.5 |  | < 0.5
4 | Cc1sc2c(c1C)C(c1ccc(N[C@@H]3CCC[C@H](Nc4ncc(C(=O)N[C@H]5CC[C@H](Oc6ccc(C#N)c(Cl)c6)CC5)cn4)C3)cc1)=NC(Cc1ncco1)c1nnc(C)n1-2 (stereo partly drawn) [I-801] | < 0.5 | < 0.5 | < 0.5 |  |  | 
5 | Cc1sc2c(c1C)C(c1cccc(N3CCC4(CCN(c5ccc(C(=O)N[C@H]6CC[C@H](Oc7ccc(C#N)c(Cl)c7)CC6)nn5)C4)C3)c1)=N[C@@H](C)c1nnc(C)n1-2 (stereo partly drawn) [I-682] | < 0.5 |  | 0.5 to 1.5 |  |  | 0.5 to 1.5
6 | Cc1sc2c(c1C)C(c1cccc(CC3CC4(CCCN(c5ccc(C(=O)N[C@H]6CC[C@H](Oc7ccc(C#N)c(Cl)c7)CC6)nn5)C4)C3)c1)=N[C@@H](C)c1nnc(C)n1-2 (stereo partly drawn) [I-712] |  |  |  | < 0.5 | < 0.5 | > 3
7 | Cc1sc2c(c1C)C(c1ccc(OC3CCC4(CCN(c5ccc(C(=O)N[C@H]6CC[C@H](Oc7ccc(C#N)c(Cl)c7)CC6)nn5)C4)C3)cc1)=N[C@@H](C)c1nnc(C)n1-2 (stereo partly drawn) [I-702] |  |  |  | < 0.5 | < 0.5 | 0.5 to 1.5
8 | Cc1sc2c(c1C)C(Oc1ccc(C3CC4(CCN(c5ccc(C(=O)N[C@H]6CC[C@H](Oc7ccc(C#N)c(Cl)c7)CC6)nn5)CC4)C3)cc1)=NC(Cc1ncco1)c1nnc(C)n1-2 (stereo partly drawn) [I-631] | > 3 | > 3 | < 0.5 |  |  | 
9 | Cc1sc2c(c1C)C(c1ccc(N3CCC4(CC3)CCN(c3ccc(C(=O)N[C@H]5CC[C@H](Oc6ccc(C#N)c(Cl)c6)CC5)nn3)C4)nc1)=NCc1nnc(C)n1-2 [I-449] | < 0.5 | > 3 | > 3 |  |  | 
10 | Cc1sc2c(c1C)C(c1ccc(N[C@H]3CCCCN(c4ncc(C(=O)N[C@H]5CC[C@H](Oc6ccc(C#N)c(Cl)c6)CC5)cn4)C3)cc1)=NC(Cc1ncco1)c1nnc(C)n1-2 (stereo partly drawn) [I-803] | < 0.5 | > 3 | < 0.5 |  |  | 
11 | Cc1sc2c(c1C)C(c1ccc(OC3CC(CC4CCN(c5ccc(C(=O)N[C@H]6CC[C@H](Oc7ccc(C#N)c(Cl)c7)CC6)nn5)CC4)C3)cc1)=NC1(CC1)c1nnc(C)n1-2 (stereo partly drawn) [I-528] | < 0.5 | > 3 | < 0.5 |  |  | 
12 | Cc1sc2c(c1C)C(c1ccc(CC3CCC4(CCCN(c5ccc(C(=O)N[C@H]6CC[C@H](Oc7ccc(C#N)c(Cl)c7)CC6)nn5)C4)C3)cc1)=N[C@@H](C)c1nnc(C)n1-2 (stereo partly drawn) [I-584] |  |  |  | < 0.5 | 1.5 to 3 | < 0.5
13 | Cc1sc2c(c1C)C(c1ccc(C#CC3CC4(CCCN(c5ccc(C(=O)N[C@H]6CC[C@H](Oc7ccc(C#N)c(Cl)c7)CC6)nn5)C4)C3)cn1)=NC(C)c1nnc(C)n1-2 (stereo partly drawn) [I-454] |  |  | < 0.5 | < 0.5 |  | > 3
14 | Cc1sc2c(c1C)C(c1ccc(CCCC3CCCN(c4ccc(C(=O)N[C@H]5CC[C@H](Oc6ccc(C#N)c(Cl)c6)CC5)nn4)CC3)nc1)=N[C@@H](C)c1nnc(C)n1-2 (stereo partly drawn) [I-672] |  |  |  | < 0.5 | < 0.5 | < 0.5
15 | CCNC(=O)C[C@@H]1N=C(c2ccc(N3CC(OC4CCN(c5ccc(C(=O)N[C@H]6CC[C@H](Oc7ccc(C#N)c(Cl)c7)CC6)nn5)CC4)C3)cc2)c2c(sc(C)c2C)-n2c(C)nnc21 [I-57] | < 0.5 | < 0.5 | < 0.5 |  |  | 
16 | Cc1sc2c(c1C)C(c1ccc(N3C[C@@H]4CN(c5ccc(C(=O)N[C@H]6CC[C@H](Oc7ccc(C#N)c(Cl)c7)CC6)nn5)C[C@@H]4C3)cc1)=N[C@@H](C)c1nnc(C)n1-2 [I-511] | < 0.5 | < 0.5 | < 0.5 |  |  | 
17 | Cc1sc2c(c1C)C(c1ccc(N3CCC4(CC3)CCN(c3ccc(C(=O)N[C@H]5CC[C@H](Oc6ccc(C#N)c(Cl)c6)CC5)nn3)C4)nc1)=NC1(CC1)c1nnc(C)n1-2 [I-477] | < 0.5 | 0.5 to 1.5 | 1.5 to 3 |  |  | 
18 | CC[C@@H]1N=C(c2ccc(N3CCC4(CC3)CC(Cc3ccc(C(=O)N[C@H]5CC[C@H](Oc6ccc(C#N)c(Cl)c6)CC5)nn3)C4)cc2)c2c(sc(C)c2C)-n2c(C)nnc21 [I-612] | < 0.5 | > 3 | < 0.5 |  |  | 
